Laboratory results from patent US10463651B2, “3-(1H-pyrrolo[3,2-C]pyridin-2-YL)-1H-indazoles and therapeutic uses thereof” (Samumed, LLC, priority 2015, dated 2019).

Columns and labels:
Format in all cases: cell-based
[1] = system: primary human fibroblasts derived from IPF patients (LL29 cells) treated with TGF-β1; experiment: Inhibition of the fibrotic process (αSMA staining) in TGF-β1-treated fibroblasts; conditions: Fibroblast, 96 h; for EC50: % αSMA-positive LL29 cells, TGF-β1 20 ng/mL, 4 days; for inhibition at 10 µM: read-out: percent inhibition at 10 μM
Description: Representative compounds were screened using primary human fibroblasts (derived from IPF patients) treated with TGF-β1 to determine their ability to inhibit the fibrotic process.
LL29 cells are plated at 1,500 cells/well in 80 μL/well F12 medium supplemented with 1% Fetal Bovine Serum. […] Wells treated with TGF-P1 and containing DMSO were used as controls. […] Following incubation for 4 days, SYTOX green nucleic acid stain (Life Technologies [Thermo Fisher Scientific]) was added to the wells at a final concentration of 1 μM and incubated at room temperature for 30 min.

SW480 colon cancer cells = experiment: Cell viability assay (CellTiter-Blue); conditions: Homo sapiens; for EC50: 96 h, SW480 cell viability, four days, CellTiter-Blue; for inhibition at 10 µM: SW480, 96 h, read-out: percent inhibition at 10 μM
Description: Representative compounds were screened using the following assay procedure to assess the effect on cell viability as described below.
Approximately 2×10^3 SW480 colon cancer cells were seeded into each well and allowed to incubate in the presence or absence of compound for four days at 37° C./5% CO2. Eight replicates of DMSO-treated cells served as controls and cells treated with compound were performed in duplicate.
After incubation, 20 μL of CellTiter-Blue (Promega) was added to each well allowed to incubate for approximately 3 hours. This reagent was a buffered solution which contains resazurin, metabolically active cells were able to reduce rezarurin (blue) into resorufin (pink) which was highly fluorescent. This measured fluorescence was used as a readout for cell viability.

IL-6 (THP-1 cells) = experiment: IL-6 inhibition in LPS-stimulated THP-1 cells (HTRF); conditions: Homo sapiens; for EC50: IL6 by HTRF, THP-1 cells, 500 ng/mL LPS, 22 hours; for inhibition at 10 µM: THP-1, read-out: percent inhibition at 10 M
Description: THP-1 cells were cultured in basal media with 1% FBS for 24 hours before the start of the assay. […] THP-1 cells were plated at 5000 cells/well in the 384-well plates and incubated at 37° C. for 2 h. 500 ng/mL of LPS was added after 2 hours and cells were incubated for another 22 hours at 37° C. Plates were spun in a centrifuge for 1 minute at […] and a mixture of anti-IL6 XL665, and anti-IL6 Cryptate diluted in reconstitution buffer (Cisbio Inc.) was added to each well. Following incubation for 3 hrs at room temperature, Homogeneous Time-Resolved Fluorescence (HTRF) was measured using the Envision (Perkin Elmer) at 665 nm and […]. The ratio of fluorescence at 665 nm to 620 nm was used as a readout for IL6 quantification. All samples were processed in duplicate. Readings were normalized to DMSO treated cells and normalized activities were utilized for EC50 calculations using the dose-response log (inhibitor) vs. response-variable slope (four parameters) nonlinear regression feature available in GraphPad Prism 5.0 (or Dotmatics).

[2] = system: Wnt activity (Sp5-Luc reporter, SW480 colon carcinoma cells); experiment: Screening assay for Wnt activity (Sp5-Luc reporter gene assay in SW480 cells); conditions: Homo sapiens; for EC50: Sp5-Luc reporter, SW480 cells, incubated overnight; for inhibition at 10 µM: SW480, read-out: percent inhibition at 10 μM
Text: The screening assay for Wnt activity is described as follows. Reporter cell lines can be generated by stably transducing cancer cell lines (e.g., colon cancer) or primary cells (e.g., IEC-6 intestinal cells) with a lentiviral construct that includes a Wnt-responsive promoter driving expression of the firefly luciferase gene.
SW480 colon carcinoma cells were transduced with a lentiviral vector expressing luciferase with a human Sp5 promoter consisting of a sequence of eight TCF/LEF binding sites. SW480 cells stably expressing the Sp5-Luc reporter gene and a hygromycin resistance gene were selected by treatment with 150 μg/mL of hygromycin for 7 days. These stably transduced SW480 cells were expanded in cell culture and used for all further screening activities. […] For Sp5-Luc reporter gene assays, the cells were plated at 4,000 cells/well in 384-well plates with medium containing 1% fetal bovine serum and incubated overnight at 37° C. and 5% CO2. Following incubation, 20 μl of BrightGlo luminescence reagent (Promega) was added to each well of the 384-well assay plates. The plates were placed on an orbital shaker for 2 min and then luminescence was quantified using the Envision (Perkin Elmer) plate reader. Readings were normalized to DMSO only treated cells, and normalized activities were utilized for EC50 calculations using the dose-response log (inhibitor) vs. response-variable slope (four parameters) nonlinear regression feature available in GraphPad Prism 5.0 (or Dotmatics).

EC50 (SW480 colon cancer cells) | EC50 (IL-6 (THP-1 cells)) | EC50 [2] | Structure (SMILES) | EC50 [1] | inhibition at 10 µM (IL-6 (THP-1 cells)) | inhibition at 10 µM [2] | inhibition at 10 µM [1] | inhibition at 10 µM (SW480 colon cancer cells)
> 10000 nM | 489 nM | 445 nM | CC(C)(C)CC(=O)Nc1cncc(-c2ccc3[nH]nc(-c4cc5c(-c6ccccc6F)nccc5[nH]4)c3c2)c1 [Compound 72, N-(5-(3-(4-(2-Fluorophenyl)-1H-pyrrolo[3,2-c]pyridin-2-yl)-1H-indazol-5-yl)pyridin-3-yl)-3,3-dimethylbutanamide] | > 10000 nM | – | – | 0% | 9.6%
1020 nM | 1960 nM | 1220 nM | Fc1ccccc1-c1nccc2[nH]c(-c3n[nH]c4ccc(-c5ccccn5)cc34)cc12 [Compound 84, 3-(4-(2-Fluorophenyl)-1H-pyrrolo[3,2-c]pyridin-2-yl)-5-(pyridin-2-yl)-1H-indazole] | 659 nM | – | – | – | –
8080 nM | 331 nM | > 10000 nM | CN(C)c1cncc(-c2ccc3[nH]nc(-c4cc5c(-c6cccnc6)nccc5[nH]4)c3c2)c1 [Compound 91, N,N-Dimethyl-5-(3-(4-(pyridin-3-yl)-1H-pyrrolo[3,2-c]pyridin-2-yl)-1H-indazol-5-yl)pyridin-3-amine] | > 10000 nM | – | 35.7% | 46.9% | –
1020 nM | > 10000 nM | 2100 nM | c1cc(-c2ccc3[nH]nc(-c4cc5c(N6CCCCC6)nccc5[nH]4)c3c2)ccn1 [Compound 186, 3-(4-(Piperidin-1-yl)-1H-pyrrolo[3,2-c]pyridin-2-yl)-5-(pyridin-4-yl)-1H-indazole] | 832 nM | 53.9% | – | – | –
2870 nM | 1420 nM | 1900 nM | CC(C)CC(=O)Nc1cncc(-c2ccc3[nH]nc(-c4cc5c(N6CCN(C)CC6)nccc5[nH]4)c3c2)c1 [Compound 226, 3-Methyl-N-(5-(3-(4-(4-methylpiperazin-1-yl)-1H-pyrrolo[3,2-c]pyridin-2-yl)-1H-indazol-5-yl)pyridin-3-yl)butanamide] | 2960 nM | – | – | – | –
> 10000 nM | 9510 nM | > 10000 nM | CN1CCN(c2nccc3[nH]c(-c4n[nH]c5ccc(-c6cncc(NC(=O)C7CCCC7)c6)cc45)cc23)CC1 [Compound 246, N-(5-(3-(4-(4-Methylpiperazin-1-yl)-1H-pyrrolo[3,2-c]pyridin-2-yl)-1H-indazol-5-yl)pyridin-3-yl)cyclopentanecarboxamide] | > 10000 nM | – | 17.1% | 0% | 34.3%
> 10000 nM | 8260 nM | > 10000 nM | CN1CCN(c2nccc3[nH]c(-c4n[nH]c5ccc(-c6cncnc6)cc45)cc23)CC1 [Compound 251, 3-(4-(4-Methylpiperazin-1-yl)-1H-pyrrolo[3,2-c]pyridin-2-yl)-5-(pyrimidin-5-yl)-1H-indazole] | 9700 nM | – | 20.2% | – | 20%
4690 nM | 2750 nM | > 10000 nM | CN1CCN(c2nccc3[nH]c(-c4n[nH]c5ccc(-c6ccccn6)cc45)cc23)CC1 [Compound 252, 3-(4-(4-Methylpiperazin-1-yl)-1H-pyrrolo[3,2-c]pyridin-2-yl)-5-(pyridin-2-yl)-1H-indazole] | 1460 nM | – | 18.8% | – | –

The remaining lines, values behind:

Structure (SMILES) | EC50 (SW480 colon cancer cells) | EC50 (IL-6 (THP-1 cells)) | EC50 [2] | EC50 [1] | inhibition at 10 µM (IL-6 (THP-1 cells)) | inhibition at 10 µM [2] | inhibition at 10 µM [1] | inhibition at 10 µM (SW480 colon cancer cells)
O=C(Cc1ccccc1)Nc1cncc(-c2ccc3[nH]nc(-c4cc5c(-c6cccc(F)c6)nccc5[nH]4)c3c2)c1 [Compound 10, N-(5-(3-(4-(3-Fluorophenyl)-1H-pyrrolo[3,2-c]pyridin-2-yl)-1H-indazol-5-yl)pyridin-3-yl)-2-phenylacetamide] | 1020 nM | 660 nM | 875 nM | 630 nM | – | – | – | –
Fc1cccc(-c2nccc3[nH]c(-c4n[nH]c5ccc(-c6ccncc6)cc45)cc23)c1 [Compound 18, 3-(4-(3-Fluorophenyl)-1H-pyrrolo[3,2-c]pyridin-2-yl)-5-(pyridin-4-yl)-1H-indazole] | 1860 nM | > 10000 nM | > 10000 nM | 4350 nM | 8.4% | 58.3% | – | –
O=C(Nc1cncc(-c2ccc3[nH]nc(-c4cc5c(-c6cccc(F)c6)nccc5[nH]4)c3c2)c1)C1CCCCC1 [Compound 23, N-(5-(3-(4-(3-Fluorophenyl)-1H-pyrrolo[3,2-c]pyridin-2-yl)-1H-indazol-5-yl)pyridin-3-yl)cyclohexanecarboxamide] | 1140 nM | 108 nM | 1400 nM | 1460 nM | – | – | – | –
Fc1cccc(-c2nccc3[nH]c(-c4n[nH]c5ccc(-c6ccccn6)cc45)cc23)c1 [Compound 28, 3-(4-(3-Fluorophenyl)-1H-pyrrolo[3,2-c]pyridin-2-yl)-5-(pyridin-2-yl)-1H-indazole] | 576 nM | 3090 nM | 1080 nM | 421 nM | – | – | – | –
CC(C)CC(=O)Nc1cncc(-c2ccc3[nH]nc(-c4cc5c(-c6ccc(F)cc6)nccc5[nH]4)c3c2)c1 [Compound 30, N-(5-(3-(4-(4-Fluorophenyl)-1H-pyrrolo[3,2-c]pyridin-2-yl)-1H-indazol-5-yl)pyridin-3-yl)-3-methylbutanamide] | 439 nM | 1300 nM | 442 nM | 329 nM | – | – | – | –
Cc1ccncc1-c1ccc2[nH]nc(-c3cc4c(-c5ccc(F)cc5)nccc4[nH]3)c2c1 [Compound 33, 3-(4-(4-Fluorophenyl)-1H-pyrrolo[3,2-c]pyridin-2-yl)-5-(4-methylpyridin-3-yl)-1H-indazole] | 3850 nM | > 10000 nM | 3720 nM | 2000 nM | 36.8% | – | – | –
CC(C)(C)C(=O)Nc1cncc(-c2ccc3[nH]nc(-c4cc5c(-c6ccc(F)cc6)nccc5[nH]4)c3c2)c1 [Compound 36, N-(5-(3-(4-(4-Fluorophenyl)-1H-pyrrolo[3,2-c]pyridin-2-yl)-1H-indazol-5-yl)pyridin-3-yl)pivalamide] | 659 nM | 207 nM | 742 nM | 745 nM | – | – | – | –
O=C(Nc1cncc(-c2ccc3[nH]nc(-c4cc5c(-c6ccc(F)cc6)nccc5[nH]4)c3c2)c1)c1ccccc1 [Compound 39, N-(5-(3-(4-(4-Fluorophenyl)-1H-pyrrolo[3,2-c]pyridin-2-yl)-1H-indazol-5-yl)pyridin-3-yl)benzamide] | 540 nM | 3460 nM | 1610 nM | 501 nM | – | – | – | –
CC(C)Nc1cncc(-c2ccc3[nH]nc(-c4cc5c(-c6ccc(F)cc6)nccc5[nH]4)c3c2)c1 [Compound 40, 5-(3-(4-(4-Fluorophenyl)-1H-pyrrolo[3,2-c]pyridin-2-yl)-1H-indazol-5-yl)-N-isopropylpyridin-3-amine] | 779 nM | 545 nM | 539 nM | 549 nM | – | – | – | –
CC(C)(C)CC(=O)Nc1cncc(-c2ccc3[nH]nc(-c4cc5c(-c6ccc(F)cc6)nccc5[nH]4)c3c2)c1 [Compound 44, N-(5-(3-(4-(4-Fluorophenyl)-1H-pyrrolo[3,2-c]pyridin-2-yl)-1H-indazol-5-yl)pyridin-3-yl)-3,3-dimethylbutanamide] | > 10000 nM | > 10000 nM | > 10000 nM | > 10000 nM | 35% | 19.5% | 0% | 7.7%
